System: Nude (RNU) rats
Assay: FK506 immunosuppression of nude rats transplanted with human hepatocytes, body size
Assay type: in vivo, rat
Details: 2 mg/kg/day FK506, four weeks after hepatocyte injection
Experimental: Forty nude rat pups (2 weeks old) were obtained from Charles River and acclimated for a week before the study began. The rats were assigned to + or −immunosuppressive groups, with controls in each group (see Table 3 below). Rats assigned to the +immunosuppressive group were treated with 2 mg/kg/day subcutaneous doses of FK506 (Tacrolimus) throughout the study, with the initial dosage being 20 μl of 5 mg/mL FK506 ([…]) per day, based upon an average initial animal weight of 50 g at the start of the study. The −immunosuppression rats were not treated with FK506, but were injected subcutaneously with the same volume of saline throughout the study. All of the rats were then given an intravenous injection (retroorbital) of uPA adenovirus (2.5×10^9 plaque forming units (PFU) per 50 g rat) 48-96 hours before hepatocyte injection.
Two weeks after study commencement, the dose of FK506 was increased to 30 μl of 5 mg/mL due to an increase in animal weight. Four weeks after study commencement, the dose of FK506 was again increased to 25 μl of 10 mg/mL to account for growth of the rats.
Four weeks after hepatocyte injection (˜5 weeks after study commencement), at least 50 μl of whole blood was collected from the rats and allowed to clot for 1 hour at room temperature. Serum was collected by centrifuging the whole blood at 1,500 rpm×15 minutes. […]

With `C=CC[C@@H]1/C=C(\C)C[C@H](C)C[C@H](OC)[C@H]2O[C@@](O)(C(=O)C(=O)N3CCCC[C@H]3C(=O)O[C@H](/C(C)=C/[C@@H]3CC[C@@H](O)[C@H](OC)C3)[C@H](C)[C@@H](O)CC1=O)[C@H](C)C[C@@H]2OC` [FK506] the “body size on reweighing versus non-treated rats” value was “significantly smaller than their non-treated counterparts”.
